# Patent publication US10632211B2, “Demethylation to treat eye disease” (The Regents of the University of California, priority 2018, dated 2020)
# How the values were obtained:
# ELOVL2 expression [1] = test: ELOVL2 expression by qRT-PCR in 5-Aza-dc treated WI-38 cells; assay type: cell-based, human; conditions: WI-38 fibroblasts, 2 μM for 2 days followed by 5 days without the compound; qRT-PCR vs untreated control (FIG. 2B)
# Experimental: (§1) The effect of the ELOVL2 promoter methylation level on ELOVL2 expression was tested. WI-38 fibroblasts were treated with 5-Aza-2′-deoxycytidine (5-Aza-dc), a cytidine analog that inhibits DNA methyltransferase. The cells were treated for 2 days with 2 μM 5-Aza-dc followed by 5 days of culture without the compound. At the end of experiment, the expression of ELOVL2 was measured by qRT-PCR.
# (§2) WI-38 and IMR-90 human fibroblasts were cultured in EMEM (ATCC) supplemented with 10% fetal bovine serum (Omega) and 1% penicillin/streptomycin (Gibco), and kept in a humidified incubator at 5% CO2 and 37° C. Confluence was calculated via ImageJ imaging software, including 3 fields of view per sample (10×). Upon confluence, cells were split and seeded at a 1:3 ratio. Population doublings (PD) were calculated by cell count. Knockdown lentivirus was generated using MISSION shRNA (Sigma) according to the manufacturer's instructions. 5-Aza-2′-deoxycitidine was purchased from TSZ Chem (CAS #2353-33-5), and dissolved in cell culture medium at a concentration of 2 μM. Cells were treated for a period of 48 hours. The medium was then replaced with regular cell culture medium, and the cells were cultured for 5 more days.
# (§3) DNA and RNA were isolated from human fibroblasts and mouse tissues with TRIzol (Ambion) according to manufacturer's instructions. […]
# patient with dry AMD [2] = test: Human clinical use example: tolerability of intravitreal decitabine; assay type: in vivo
# Experimental: (§4) A person with bilateral, dry age-related macular degeneration (AMD) is seen in an ophthalmology clinic. They are otherwise healthy. They consent to an experimental study comparing demethylation therapy verses control. At baseline both eyes show a similar level of AMD as evidenced by clinical assessments for visual acuity, size of geographic atrophy as measured by autofluorescence, optical coherence tomography, and scotopic response on electroretinography. The patient is treated with 100 uL of decitabine (20 uM) formulated as a sterile, isotonic, pH buffered solution administered by intravitreal injection in their left eye (active treatment). They receive 100 ul of the same sterile, isotonic, pH buffered solution but without decitabine administered by intravitreal injection in their right eye (control treatment). Immediately following the administration of the active and control treatments, a sample of intravitreal fluid is withdrawn from each eye for baseline measurements of ELOVL2 expression and methylation level. It is observed that ELOVL2 is hypermethylated to a similar extent in both eyes. The levels of ELOVL2 expression are also similar and a low level of expression is observed in both eyes. […]
# (§5) A person with dry age-related macular degeneration (AMD) with Geographic Atrophy is seen in an ophthalmology clinic. Their vision as assessed by scotopic response is declining. […]
# mouse eyes = test: Scotopic ERG response in mouse eyes after intraocular injection; assay type: in vivo; conditions: 1 μL of 2 μM intraocular every other week for 2 months from age 10 months, vs PBS eye (FIG. 5C, FIG. 13)
# Experimental: (§6) Finally, it was investigated whether the aging characteristics in mouse eyes could be reverted by DNA demethylation, including the ELOVL2 promoter. To do that, each mouse was injected with 1 μL of 2 μM 5-Aza-dc in one eye and 1 μL of PBS in the other eye, every other week over a period of 2 months starting at age of 10 months. It was found, using the MeDIP method, that methylation of the ELOVL2 promoter decreased after treatment (FIG. 5A).
# (§7) All animal procedures were conducted with the approval of the Institutional Animal Care Committee at the University of California, San Diego. C57BL/6N mouse zygotes were injected with CRISPR-Cas9 constructs. Oligos were injected into the cytoplasm of the zygotes at the pronuclei stage. Mice were housed on static racks in a conventional animal facility, and were fed ad libitum with Teklad Global 2020X diet. For the 5-Aza-dc injection study, mice were anesthetized by intraperitoneal injection of ketamine/xylazine (100 mg/kg and 10 mg/kg, respectively), and given an analgesic eye drop of Proparacaine (0.5%, Bausch & Lomb). Animals were intraocularly injected with 1 μL of PBS in one eye, and 1 μL of 2 μM 5-Aza-dc dissolved in PBS in the contralateral eye, every other week over a period of 2 months.
# Electroretinograms (ERGs) were performed following a previously reported protocol. […]
# patient with dry AMD [3] = test: Human clinical use example: clinical assessments (scotopic response, geographic atrophy) after intravitreal decitabine; assay type: in vivo
# Experimental: A person with bilateral, dry age-related macular degeneration (AMD) is seen in an ophthalmology clinic. They are otherwise healthy. They consent to an experimental study comparing demethylation therapy verses control. At baseline both eyes show a similar level of AMD as evidenced by clinical assessments for visual acuity, size of geographic atrophy as measured by autofluorescence, optical coherence tomography, and scotopic response on electroretinography. The patient is treated with 100 uL of decitabine (20 uM) formulated as a sterile, isotonic, pH buffered solution administered by intravitreal injection in their left eye (active treatment). They receive 100 ul of the same sterile, isotonic, pH buffered solution but without decitabine administered by intravitreal injection in their right eye (control treatment). Immediately following the administration of the active and control treatments, a sample of intravitreal fluid is withdrawn from each eye for baseline measurements of ELOVL2 expression and methylation level. It is observed that ELOVL2 is hypermethylated to a similar extent in both eyes. The levels of ELOVL2 expression are also similar and a low level of expression is observed in both eyes. Both the active and control treatments are continued in the left and right eyes respectively with administrations every other week for 3 months. […] Immediately following the last administration, samples of intravitreal fluid are obtained from both eyes for measurement of ELOVL2 gene expression and methylation. The same clinical assessments for geographic atrophy performed at baseline are repeated for each eye. Significant differences are observed between the eye treated with decitabine compared to control. In the decitabine treated eye, ELOVL2 methylation is reduced by almost 30% and ELOVL2 gene expression is increased also by about 30% compared to baseline. Also, the scotopic response is increased by about 30% over baseline. […] In marked contrast, there is no observable change in the control eye in any of the other parameters. Gene methylation and gene expression and scotopic response values remain similar to those observed at baseline values. The patient returns to the clinic for a follow up visit at 6 months. […] Scotopic response in the control eye remains similar to the baseline value.
# A person with dry age-related macular degeneration (AMD) with Geographic Atrophy is seen in an ophthalmology clinic. Their vision as assessed by scotopic response is declining. […] They are otherwise healthy. The patient is treated with 100 uL of decitabine (15 uM) formulated as a sterile, isotonic, pH buffered solution administered by intravitreal injection. […] The decitabine treatment is continued with the same dose administered every 5 weeks over a 12 month period. […] Following the last decitabine administration a sample of vitreous fluid is obtained and tested for ELOVL2 gene methylation and ELOVL2 gene expression. The studies reveal ELOVL2 methylation has decreased by almost 60% (from baseline) and ELOVL2 gene expression is increased by about 50% (over the baseline value).
# ELOVL2 methylation = test: Human clinical use example: ELOVL2 methylation in intravitreal fluid after intravitreal decitabine; assay type: in vivo
# Experimental: as §4, §5
# ELOVL2 promoter [4] = test: ELOVL2 promoter methylation by MeDIP followed by qPCR in 5-Aza-dc treated WI-38 cells; assay type: cell-based, human; conditions: WI-38 fibroblasts, 2 μM for 2 days followed by 5 days of culture without the compound; MeDIP-qPCR vs untreated control (FIG. 2A)
# Experimental: as §1, §2, §3
# WI-38 cells = test: Senescence-associated β-galactosidase staining of 5-Aza-dc treated WI-38 cells; assay type: cell-based, human; conditions: WI-38 fibroblasts, 2 μM; SA-β-Gal staining (FIG. 2C)
# Experimental: as §1
# as §2, with “5-Aza-2′-deoxycitidine was purchased from TSZ Chem (CAS #2353-33-5), and dissolved in cell culture medium at a concentration of 2 μM. Cells were treated for a period of 48 hours. The medium was then replaced with regular cell culture medium, and the cells were cultured for 5 more days.” left out
# The SA-β-gal activity in cultured cells was determined using the Senescence β-Galactosidase Staining Kit (Cell Signaling Technology), according to the manufacturer's instructions. Cells were stained with DAPI afterwards, and percentages of cells that stained positive were calculated with imaging software (Keyence), including 3 fields of view (10×).
# ELOVL2 expression [5] = test: ELOVL2 expression by qPCR in mouse retinas after intraocular injection; assay type: in vivo; conditions: mouse retina, 1 μL of 2 μM intraocular every other week for 2 months from age 10 months, vs PBS eye; qPCR (FIG. 5B)
# Experimental: as §6
# (§8) DNA and RNA were isolated from human fibroblasts and mouse tissues with TRIzol (Ambion) according to manufacturer's instructions. RNA was converted to cDNA with iScript cDNA Synthesis Kit (Bio-Rad). qPCR was performed using SsoAdvanced Universal SYBR Green Supermix (Bio-Rad).
# as §7, with “Animals were intraocularly injected with 1 μL of PBS in one eye, and 1 μL of 2 μM 5-Aza-dc dissolved in PBS in the contralateral eye, every other week over a period of 2 months.” left out
# ELOVL2 gene expression = test: Human clinical use example: ELOVL2 gene expression in intravitreal fluid after intravitreal decitabine; assay type: in vivo
# Experimental: as §4, §5
# ELOVL2 promoter [6] = test: ELOVL2 methylation by MeDIP in mouse retinas after intraocular injection; assay type: in vivo; conditions: mouse retina, 1 μL of 2 μM intraocular every other week for 2 months from age 10 months, vs PBS eye; MeDIP (FIG. 5A)
# Experimental: as §6, §8
# Methylated DNA Immunoprecipitation (MeDIP) was performed by shearing 1 μg DNA by Bioruptor (Diagenode) for 8 cycles on the high setting, each cycle consisting of 30 seconds on and 30 seconds off. Sheared DNA was denatured, incubated with 1 μg 5 mC antibody MABE146 (Millipore) for 2 hours, then with SureBeads protein G beads (Bio-Rad) for 1 hour. After washing, DNA was purified with QIAquick PCR Purification Kit (Qiagen). qPCR was then performed as above.
# All animal procedures were conducted with the approval of the Institutional Animal Care Committee at the University of California, San Diego. C57BL/6N mouse zygotes were injected with CRISPR-Cas9 constructs. […]
# [7] = Geographic Atrophy patient, 100 uL of 15 uM intravitreal every 5 weeks over 12 months
# [8] = dry AMD patient, 100 uL of 20 uM intravitreal every other week for 3 months
compound,measurement,setting,value
"Nc1ncn([C@H]2C[C@H](O)[C@@H](CO)O2)c(=O)n1 [5-Aza-dc, 5-Aza-2′-deoxycytidine]",ELOVL2 expression,ELOVL2 expression [1],upregulated
same,tolerability,patient with dry AMD [2]; [7],well tolerated with no adverse effects observed
same,tolerability,patient with dry AMD [2]; [8],equally well tolerated
same,scotopic response (ERG),mouse eyes,improved
same,geographic atrophy growth by fundus autofluorescence,patient with dry AMD [3]; [7],no geographic atrophy growth
same,scotopic response increased over baseline,patient with dry AMD [3]; [7],about 30%
same,scotopic response improvement over baseline,"patient with dry AMD [3]; dry AMD patient, 20 uM bi-weekly for 3 months, follow up visit at 6 months",20%-30%
same,growth of geographic atrophy by fundus autofluorescence compared to baseline,patient with dry AMD [3]; [8],no progression
same,scotopic response increased over baseline,"patient with dry AMD [3]; dry AMD patient, 100 uL of 20 uM intravitreal every other week for 3 months, after last administration",about 30%
same,ELOVL2 methylation decreased from baseline,ELOVL2 methylation; [7],~60%
same,ELOVL2 methylation reduced compared to baseline,ELOVL2 methylation; [8],about 30%
same,ELOVL2 promoter methylation,ELOVL2 promoter [4],reduced
same,percentage of senescent cells in culture,WI-38 cells,lower percentage of senescent cells
same,ELOVL2 expression,ELOVL2 expression [5],upregulated
same,ELOVL2 gene expression increased over the baseline value,ELOVL2 gene expression; [7],about 50%
same,ELOVL2 gene expression increased compared to baseline,ELOVL2 gene expression; [8],about 30%
same,methylation of the ELOVL2 promoter,ELOVL2 promoter [6],decreased
